PMC5796995 (Oncotarget, 2017)

Columns and labels:
HepaRG cells [1] = assay type: cell-based, human
[2] = system: hepatic microsomal enzymes; assay type: in vitro ADME, rat
[3] = system: Salmonella typhimurium (TA100); assay type: cell-based
calf thymus DNA = assay type: biochemical
HepG2 cells [4] = assay type: cell-based, human
HepG2 cells [5] = assay type: cell-based, human; remark: listed apart in the source
plasma proteins = assay type: in vitro ADME; conditions: human
HepaRG cells [6] = assay type: cell-based, human; remark: listed apart in the source
Caco-2 monolayers = assay type: in vitro ADME
Description: Assay plates containing 12 wells of 21-day Caco-2 monolayers were provided by MB Biosciences. Monolayer integrity was verified using transepithelial electrical resistance measurements (TEER) prior to assay. Treatment solutions of AFB1, AFB2a, and AFB2a-Arg were prepared in the provided Hank's buffered salt solution (HBSS) with a pH of 7.4 and a final DMSO concentration of 0.2%. Caco-2 monolayers were first rinsed with HBSS and then the apical chamber was filled with 500 μL of test compound solution while the basal chamber was filled with 1500 μL of blank HBSS (both chambers were kept at pH 7.4). Plates were incubated at 37°C for 2 hours to allow compound equilibration. Compound concentration was measured at t = 0 hrs and t = 2 hours by HPLC-MS. Permeability (Papp) was calculated as follows: Papp=dQ/dt×1/A×C0
Where dQ/dt is the amount of translocated material over incubation time (nmol/s), A is the area of the insert (cm^2), and C0 is the initial concentration of the test compound applied. […] ER was calculated as follows: ER=Papp(Basal→Apical)/Papp(Apical→Basal)

[7] = assay type: physicochemical; conditions: pH 7
Description: Individual standards of AFB1, AFB2a, and AFB2a-Arg were prepared in deionized water (pH 7) at a concentration of 300 ng/mL each. Aliquots of 300 μL of each aqueous standard were added to 300 μL of 1-octanol. Solutions were shaken at 1800 rpm for 5 min and then allowed to equilibrate for an additional 30 minutes. Aqueous and organic layers for each sample were separated and analyzed by HPLC-MS. Octanol-water partition coefficients (P) were calculated as follows: P=[Peak area in octanol fraction]/[Peak area in aqueous fraction]

COc1cc2c(c3oc(=O)c4c(c13)CCC4=O)C1C=COC1O2 (stereo not drawn) [AFB1, aflatoxin B1, reference compound]
concentrations that significantly reduced the percentage of viable cells (HepaRG cells [1]): > 3.75 µM
degraded by hepatic microsomal enzymes [2]: approximately 75%
number of revertant wells (mutagenic response) [3]: significant increase in the number of revertant wells
DNA adduct formation (calf thymus DNA): presence of DNA adduction
number of micronuclei (HepG2 cells [4]): significant increase in the number of micronuclei
concentrations that significantly reduced the percentage of viable cells (HepG2 cells [5]): > 7.5 µM
plasma protein bound (plasma proteins): 82%
number of micronuclei (HepaRG cells [6]): significant increase in the number of micronuclei

COc1cc(O)c(-c2ccn(C(CCCNC(=N)N)C(=O)O)c2)c2oc(=O)c3c(c12)CCC3=O (stereo not drawn) [AFB2a-Arg, aflatoxin B2a-arginine]
concentrations that significantly reduced the percentage of viable cells (HepaRG cells [1]): no significant decreases in cell viability
degraded by hepatic microsomal enzymes [2]: not significantly degraded
number of revertant wells (mutagenic response) [3]: did not show any significant differences from the vehicle
efflux ratio, comparison (Caco-2 monolayers): significantly higher efflux ratio than AFB1
intestinal permeability (Papp), comparison (Caco-2 monolayers; pH 7.4): significantly lower than AFB1
DNA adduct formation (calf thymus DNA): no additional peaks were discovered
octanol-water partition coefficient [7]: lower partition coefficient than AFB1 or AFB2a
concentrations without increase in micronuclei formation (HepG2 cells [4]): ≤ 60 µM
number of micronuclei (HepG2 cells [4]): did not show this genotoxic marker
concentrations that significantly reduced the percentage of viable cells (HepG2 cells [5]): no significant decreases in cell viability
plasma protein bound (plasma proteins): 99%
concentrations without increase in micronuclei formation (HepaRG cells [6]): ≤ 60 µM
number of micronuclei (HepaRG cells [6]): did not show this genotoxic marker
